# Data published in PMC5266325, “The Rice Dynamin-Related Protein OsDRP1E Negatively Regulates Programmed Cell Death by Controlling the Release of Cytochrome c from Mitochondria” (PLoS Pathogens, 2017).
# Residue numbers refer to the chain shown, from its start.
# Tests used:
# OsDRP1E (MBP-OsDRP1E) [1] = target: T1, OsDRP1E (MBP-OsDRP1E) (Oryza sativa, UniProt Q650Z3, E409V); assay: colorimetric phosphate release GTPase assay; format: biochemical; conditions: MBP fusion; time course and 2, 5, 10 ug protein; lower activity than wild type
# T1 construct: gene Os09g0572900; tag kept; native protein 70 kDa
# T1 sequence (Q650Z3 1-626 E409V): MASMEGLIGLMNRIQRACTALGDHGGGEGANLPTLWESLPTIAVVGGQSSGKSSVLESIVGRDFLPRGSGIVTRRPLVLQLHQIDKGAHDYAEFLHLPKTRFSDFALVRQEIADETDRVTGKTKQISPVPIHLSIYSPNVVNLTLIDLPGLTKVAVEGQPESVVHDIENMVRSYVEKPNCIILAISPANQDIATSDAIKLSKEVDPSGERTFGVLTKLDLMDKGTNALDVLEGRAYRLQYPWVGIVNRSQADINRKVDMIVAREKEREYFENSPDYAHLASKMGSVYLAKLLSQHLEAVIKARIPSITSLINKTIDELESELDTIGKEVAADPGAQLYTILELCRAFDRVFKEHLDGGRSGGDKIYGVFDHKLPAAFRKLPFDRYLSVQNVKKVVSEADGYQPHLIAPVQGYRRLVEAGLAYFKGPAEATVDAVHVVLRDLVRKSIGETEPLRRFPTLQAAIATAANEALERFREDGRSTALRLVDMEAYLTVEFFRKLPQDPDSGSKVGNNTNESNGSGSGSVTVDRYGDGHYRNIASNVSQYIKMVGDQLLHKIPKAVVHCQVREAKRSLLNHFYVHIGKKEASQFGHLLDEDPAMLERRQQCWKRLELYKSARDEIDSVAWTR
# OsDRP1E (MBP-OsDRP1E) [2] = target: T2, OsDRP1E (MBP-OsDRP1E) (Oryza sativa, UniProt Q650Z3); assay: colorimetric phosphate release GTPase assay; format: biochemical; conditions: MBP fusion; time course and 2, 5, 10 ug protein
# T2 construct: gene Os09g0572900; tag kept; native protein 70 kDa
# T2 sequence (Q650Z3 1-626): T1 sequence (Q650Z3 1-626 E409V) with V409E
compound,measurement,setting,value
Nc1nc2c(ncn2[C@@H]2O[C@H](COP(=O)(O)OP(=O)(O)OP(=O)(O)O)[C@@H](O)[C@H]2O)c(=O)[nH]1 [GTP],colorimetric phosphate release GTPase assay,OsDRP1E (MBP-OsDRP1E) [1],both MBP-OsDRP1E and MBP-E409V displayed catalytic activity towards the substrate GTP
same,colorimetric phosphate release GTPase assay,OsDRP1E (MBP-OsDRP1E) [2],both MBP-OsDRP1E and MBP-E409V displayed catalytic activity towards the substrate GTP
